Results: US4563472A, “Iodoallyl and iodopropargyl substituted tetrazoles and anti-microbial compositions thereof” (Meiji Seika Kaisha, Ltd., priority 1982, dated 1986)
In brackets after ≈: the same amount, converted by molar mass. Like-named read-outs stand apart in the source and are kept apart here.

Assays:
[1] = system: Rhizopus nigricans S.N. 32; test: Antifungal Activity (in Industrial Field), MIC; assay type: cell-based; conditions: Rhizopus stolonifer, read-out: Minimal Inhibitory Conc. (MIC)
[2] = system: Cryptococcus neoformans Cr-1; test: Antifungal Activity (in Medicinal Field), MIC; assay type: cell-based; conditions: CR1, read-out: Minimal Inhibitory Conc. (MIC)
[3] = system: Aspergillus terreus PQMD 82 j; test: Antifungal Activity (in Industrial Field), MIC; assay type: cell-based; conditions: PQMD82J, read-out: Minimal Inhibitory Conc. (MIC)
[4] = system: Chaetomium globosum ATCC 6205; test: Antifungal Activity (in Industrial Field), MIC; assay type: cell-based; conditions: ATCC6205, read-out: Minimal Inhibitory Conc. (MIC)
[5] = system: Pullularia pullulans IAM F-24; test: Antifungal Activity (in Industrial Field), MIC; assay type: cell-based; conditions: IAMF24; Pullularia pullulans IAM F-24; read-out: Minimal Inhibitory Conc. (MIC)
Mucor spinescens IAM Mu3 = test: Antifungal Activity (in Industrial Field), MIC; assay type: cell-based; conditions: IAMMU3, read-out: Minimal Inhibitory Conc. (MIC)
[6] = system: Trichoderma T-1 ATCC 9645; test: Antifungal Activity (in Industrial Field), MIC; assay type: cell-based; conditions: ATCC9645, read-out: Minimal Inhibitory Conc. (MIC)
[7] = system: Aspergillus flavus ATCC 6275; test: Antifungal Activity (in Industrial Field), MIC; assay type: cell-based; conditions: ATCC6275, read-out: Minimal Inhibitory Conc. (MIC)
[8] = system: Aspergillus fumigatus Saito; test: Antifungal Activity (in Medicinal Field), MIC; assay type: cell-based; conditions: read-out: Minimal Inhibitory Conc. (MIC)
[9] = system: Trichophyton interdigitale; test: Antifungal Activity (in Medicinal Field), MIC; assay type: cell-based; conditions: read-out: Minimal Inhibitory Conc. (MIC)
Candida alubicans GA-24 = test: Antifungal Activity (in Medicinal Field), MIC; assay type: cell-based
[10] = system: Cladosporium herbarum IAM F-517; test: Antifungal Activity (in Industrial Field), MIC; assay type: cell-based; conditions: IAMF517, read-out: Minimal Inhibitory Conc. (MIC)
[11] = system: Penicillium luteum ATCC 9644; test: Antifungal Activity (in Industrial Field), MIC; assay type: cell-based; conditions: Ascospirella lutea, ATCC9644, read-out: Minimal Inhibitory Conc. (MIC)
[12] = system: Trichophyton metagrophytes 530324; test: Antifungal Activity (in Medicinal Field), MIC; assay type: cell-based
[13] = system: Aspergillus fumigatus IAM 2621; test: Antifungal Activity (in Industrial Field), MIC; assay type: cell-based; conditions: IAM2621, read-out: Minimal Inhibitory Conc. (MIC)
Cochliobolus miyabeanus = test: Antibacterial and Antifungal Activities (in Agricultural Field), MIC; assay type: cell-based; conditions: Bipolaris oryzae, read-out: Minimal Inhibitory Conc. (MIC)
Gibberella fujikuroi = test: as above; assay type: cell-based; conditions: Fusarium fujikuroi, read-out: Minimal Inhibitory Conc. (MIC)
Botrytis cinerea = test: as above; assay type: cell-based; conditions: read-out: Minimal Inhibitory Conc. (MIC)
Glomerella cingulata = test: as above; assay type: cell-based; conditions: Colletotrichum gloeosporioides, read-out: Minimal Inhibitory Conc. (MIC)
[14] = system: Xanthomonas campestris pv. oryzae; test: microbe, parasite or virus in culture; assay type: cell-based; conditions: read-out: Minimal Inhibitory Conc. (MIC)
Alternaria kikuchiana = test: Antibacterial and Antifungal Activities (in Agricultural Field), MIC; assay type: cell-based; conditions: read-out: Minimal Inhibitory Conc. (MIC)
Pellicularia filamentosa = test: as above; assay type: cell-based; conditions: read-out: Minimal Inhibitory Conc. (MIC)
[15] = system: Colletotrichum lagenarium; test: as above; assay type: cell-based; conditions: Colletotrichum orbiculare, read-out: Minimal Inhibitory Conc. (MIC)
[16] = system: Fusarium oxysporum f. lycopersici; test: as above; assay type: cell-based; conditions: read-out: Minimal Inhibitory Conc. (MIC)
[17] = system: Pseudomonas syringae pv. tabaci; test: as above; assay type: cell-based; conditions: read-out: Minimal Inhibitory Conc. (MIC)
[18] = system: Trichophyton mentagrophytes; test: Therapeutic experiment on trichophytosis in guinea pigs, visual observation; assay type: in vivo, guinea pigs (White Hartly-strain); conditions: 1% preparation, 0.25 ml once per day, 8 consecutive days
[19] = system: Xanthomonas campestris pv. citri; test: Antibacterial and Antifungal Activities (in Agricultural Field), MIC; assay type: cell-based; conditions: read-out: Minimal Inhibitory Conc. (MIC)
[20] = system: Corynebacterium michiganense; test: as above; assay type: cell-based; conditions: Clavibacter michiganensis, read-out: Minimal Inhibitory Conc. (MIC)
Phricularia oryzae = test: as above; assay type: cell-based; conditions: read-out: Minimal Inhibitory Conc. (MIC)
[21] = system: Trichophyton mentagrophytes; test: Reducing culture positive rate of skin slices from infected guinea pigs; assay type: in vivo, guinea pigs (White Hartly-strain); design: concentration or dose not given beside the values; conditions: after 8 days application, non-treated 100
Diaporithe citri = test: Antibacterial and Antifungal Activities (in Agricultural Field), MIC; assay type: cell-based; conditions: read-out: Minimal Inhibitory Conc. (MIC)
Erwinia carotovora = test: as above; assay type: cell-based; conditions: Pectobacterium carotovorum, read-out: Minimal Inhibitory Conc. (MIC)
[22] = Candida, GA24, read-out: Minimal Inhibitory Conc. (MIC)
[23] = Trichophyton, 530324, read-out: Minimal Inhibitory Conc. (MIC)
[24] = GA24, Candida alubicans GA-24, read-out: Minimal Inhibitory Conc. (MIC)
[25] = Trichophyton metagrophytes 530324, read-out: Minimal Inhibitory Conc. (MIC)

Structure (SMILES)	MIC [1] [µg/mL]	MIC [2] [µg/mL]	MIC [3] [µg/mL]	MIC [4] [µg/mL]	MIC [5] [µg/mL]	MIC (Mucor spinescens IAM Mu3) [µg/mL]	MIC [6] [µg/mL]	MIC [7] [µg/mL]	MIC [8] [µg/mL]	MIC [9] [µg/mL]	MIC (Candida alubicans GA-24; [22]) [µg/mL]	MIC [10] [µg/mL]	MIC [11] [µg/mL]	MIC [12, 23] [µg/mL]	MIC [13] [µg/mL]	MIC (Cochliobolus miyabeanus) [µg/mL]	MIC (Gibberella fujikuroi) [µg/mL]	MIC (Botrytis cinerea) [µg/mL]	MIC (Glomerella cingulata) [µg/mL]	MIC [14] [µg/mL]	also measured
IC#CCn1cncn1 [1-(1'-iodopropyn-3'-yl)-1,2,4-triazole]	3.13 (≈ 13.4 µM)	0.78 (≈ 3.35 µM)	0.39 (≈ 1.67 µM)	25 (≈ 107 µM)	3.13 (≈ 13.4 µM)	6.25 (≈ 26.8 µM)	3.13 (≈ 13.4 µM)	6.25 (≈ 26.8 µM)	0.78 (≈ 3.35 µM)	0.78 (≈ 3.35 µM)	3.12 (≈ 13.4 µM)	3.13 (≈ 13.4 µM)	3.13 (≈ 13.4 µM)	1.56 (≈ 6.69 µM)	50 (≈ 215 µM)						
O=[N+]([O-])c1cn(CC#CI)c(Cl)c1Cl [1-(1'-iodopropyn-3'-yl)-2,3-dichloro-4-nitropyrrole]		1.56 (≈ 4.52 µM)	0.39 (≈ 1.13 µM)	1.56 (≈ 4.52 µM)	6.25 (≈ 18.1 µM)	0.39 (≈ 1.13 µM)	3.12 (≈ 9.05 µM)	0.39 (≈ 1.13 µM)	0.39 (≈ 1.13 µM)	0.39 (≈ 1.13 µM)		6.25 (≈ 18.1 µM)	0.78 (≈ 2.26 µM)		< 0.09	12.5 (≈ 36.2 µM)	1.56 (≈ 4.52 µM)	0.39 (≈ 1.13 µM)	0.19 (≈ 0.551 µM)	0.39 (≈ 1.13 µM)	MIC (Candida alubicans GA-24; [24]): 0.78 µg/mL (≈ 2.26 µM); MIC (Alternaria kikuchiana): 0.78 µg/mL (≈ 2.26 µM); MIC (Pellicularia filamentosa): > 50 µg/mL; MIC [15]: 1.56 µg/mL (≈ 4.52 µM); MIC [12, 25]: 0.09 µg/mL (≈ 0.261 µM); MIC [16]: 3.12 µg/mL (≈ 9.05 µM)
O=[N+]([O-])c1cc(Cl)n(CC#CI)c1 [1-(1'-iodopropyn-3'-yl)-2-chloro-4-nitropyrrole]			0.19 (≈ 0.612 µM)	12.5 (≈ 40.3 µM)	1.56 (≈ 5.02 µM)	0.78 (≈ 2.51 µM)	3.12 (≈ 10 µM)	0.39 (≈ 1.26 µM)				1.56 (≈ 5.02 µM)	0.39 (≈ 1.26 µM)		0.19 (≈ 0.612 µM)						
O=[N+]([O-])c1ccn(CC#CI)c1 [1-(1'-iodopropyn-3'-yl)-3-nitropyrrole]		0.09 (≈ 0.326 µM)							0.09 (≈ 0.326 µM)	0.78 (≈ 2.83 µM)						6.25 (≈ 22.6 µM)	3.12 (≈ 11.3 µM)	0.78 (≈ 2.83 µM)	0.78 (≈ 2.83 µM)	0.39 (≈ 1.41 µM)	MIC (Candida alubicans GA-24; [24]): 0.78 µg/mL (≈ 2.83 µM); MIC (Alternaria kikuchiana): 1.56 µg/mL (≈ 5.65 µM); MIC (Pellicularia filamentosa): 50 µg/mL (≈ 181 µM); MIC [15]: 3.12 µg/mL (≈ 11.3 µM); MIC [12, 25]: 0.19 µg/mL (≈ 0.688 µM); MIC [16]: 3.12 µg/mL (≈ 11.3 µM)
IC#CCn1cccn1 [1-(1'-iodopropyn-3'-yl)pyrazole]	1.56 (≈ 6.72 µM)	0.78 (≈ 3.36 µM)	0.78 (≈ 3.36 µM)	12.5 (≈ 53.9 µM)	3.13 (≈ 13.5 µM)	1.56 (≈ 6.72 µM)	3.13 (≈ 13.5 µM)	1.56 (≈ 6.72 µM)	0.78 (≈ 3.36 µM)	0.39 (≈ 1.68 µM)	3.12 (≈ 13.4 µM)	3.13 (≈ 13.5 µM)	0.78 (≈ 3.36 µM)	0.39 (≈ 1.68 µM)	1.56 (≈ 6.72 µM)						
IC#CCn1cnnn1 [1-(1'-iodopropyn-3'-yl)tetrazole]	3.13 (≈ 13.4 µM)	0.39 (≈ 1.67 µM)	0.2 (≈ 0.855 µM)	3.13 (≈ 13.4 µM)	1.56 (≈ 6.67 µM)	3.13 (≈ 13.4 µM)	0.78 (≈ 3.33 µM)	1.56 (≈ 6.67 µM)	0.39 (≈ 1.67 µM)	0.78 (≈ 3.33 µM)	1.56 (≈ 6.67 µM)	1.56 (≈ 6.67 µM)	1.56 (≈ 6.67 µM)	0.78 (≈ 3.33 µM)	12.5 (≈ 53.4 µM)						
O=[N+]([O-])c1ccn(CC(I)=C(I)I)c1 [1-(2',3',3'-triiodoallyl)-3-nitropyrrole]		0.39 (≈ 0.736 µM)							0.09 (≈ 0.17 µM)	0.39 (≈ 0.736 µM)						12.5 (≈ 23.6 µM)	0.39 (≈ 0.736 µM)	0.19 (≈ 0.359 µM)	0.39 (≈ 0.736 µM)	25 (≈ 47.2 µM)	MIC [17]: 6.25 µg/mL (≈ 11.8 µM); Therapeutic Effect: Desquamation [18]: effective; Therapeutic Effect: Thickening [18]: effective; MIC [19]: 50 µg/mL (≈ 94.4 µM); MIC [20]: 0.98 µg/mL (≈ 1.85 µM); MIC (Phricularia oryzae): 1.56 µg/mL (≈ 2.94 µM); MIC (Candida alubicans GA-24; [24]): 0.19 µg/mL (≈ 0.359 µM); Reducing Culture Positive Rate ([21]; 3 days culture): 16.7%; Reducing Culture Positive Rate ([21]; 5 days culture): 25.0%; Reducing Culture Positive Rate ([21]; 7 days culture): 33.3%; MIC (Alternaria kikuchiana): 0.78 µg/mL (≈ 1.47 µM); MIC (Diaporithe citri): 0.39 µg/mL (≈ 0.736 µM); MIC (Erwinia carotovora): 6.25 µg/mL (≈ 11.8 µM); MIC (Pellicularia filamentosa): 50 µg/mL (≈ 94.4 µM); MIC [15]: 0.39 µg/mL (≈ 0.736 µM); MIC [12, 25]: 0.19 µg/mL (≈ 0.359 µM); MIC [16]: 0.78 µg/mL (≈ 1.47 µM)
